Assay results: patent US20240127967A1
“And” between values parts separate entries of the source, which are not always exact repeats. Equal values may be shown once. “Also recorded” adds a separate entry of the source. Read-outs that look alike come from different tables or passages of the source.

What was measured:
[1] = in vivo, cited from earlier work
EBOV [2] = details: mouse, in vivo; cited from earlier work
EBOV/Mak [3] = details: cited from earlier work
[4] = State of V8 preparations after storage at 4° C.; assay type: physicochemical; details: stored at 4° C.
EBOV [5] = tested on: EBOV; set-up: species or system mice; details: mouse, in vivo
VSV-EBOV-GPΔ-Luc = assay type: cell-based, VSV pseudovirus bearing EBOV GP
EBOV/Mak [6] = assay: microbe, parasite or virus in culture; assay type: cell-based, Ebola virus; details: for IC50: Zaire ebolavirus
[7] = Solubility in ten test vehicles; details: for solubility in Vehicle #9: 3% NMP/45% PEG300/12% ethanol/40% sterile water; for solubility in Vehicle #9 / solubility in Vehicle #7 / solubility in Vehicle #6 / solubility in Vehicle #10 / solubility in Vehicle #8 / solubility in Vehicle #5 / solubility in Vehicle #4 / solubility in Vehicle #3: Bepridil 25, Sertraline 3, toremifene 8.4 mg/ml; for solubility in Vehicle #7: 5% NMP/95% PEG 300; for solubility in Vehicle #6: 10% Solutol/90% PEG 400; for solubility in Vehicle #2: 20% Captisol in water; for solubility in Vehicle #2 / solubility in Vehicle #1: Bepridil 25 mg/ml, Sertraline 3 mg/ml, toremifene 8.4 mg/ml; for solubility in Vehicle #10: 40% Propylene Glycol/30% Solutol HS 15/30% Sterile Water; for solubility in Vehicle #8: 80% PEG 400/20% of 0.1% Tween-20 in Water; for solubility in Vehicle #1: Aqueous Suspension Vehicle; for solubility in Vehicle #5: PEG 400; for solubility in Vehicle #4: Vegetable Oil; for solubility in Vehicle #3: […] PEG 400/[…] Tween 20/25% Capmul MCM NF
[8] = female, C57BL/6, mouse, in vivo; for Cmax: po
[9] = Tolerability of drugs in V8 in mice; details: in V8, once daily PO, eleven consecutive days; bepridil 500, toremifene 200, sertraline 60 and 100 mg/kg
[10] = Pharmacokinetic modeling of human oral PK data (Monolix); set-up: species or system humans; details: for V: fitted PK model parameter (volume of plasma/serum compartment); for k: fitted elimination rate
EBOV [11] = details: read-out: IC50 (HepG2); cited from earlier work
MARV = details: mouse, in vivo; cited from earlier work
in vivo = details: mouse, ip, 12 mg/kg
EBOV/Mak-005 = details: rhesus monkey, in vivo; cited from earlier work
[12] = Huh-7, read-out: IC50 (average)

Compound	peak concentration [1]	trough concentration [1]	Survival (%) (EBOV [2])	IC50 (EBOV/Mak [3]; read-out: IC50 (Huh7)) [µM]	state of preparation in Vehicle 8 when removed from the refrigerator [4]	solubility in Vehicle #9 [7]	solubility in Vehicle #7 [7]	solubility in Vehicle #6 [7]	solubility in Vehicle #2 [7]	solubility in Vehicle #10 [7]	solubility in Vehicle #8 [7]	solubility in Vehicle #1 [7]	solubility in Vehicle #5 [7]	solubility in Vehicle #4 [7]	solubility in Vehicle #3 [7]	Cmax [8] [nM]	Hill coefficient (EBOV/Mak [3])	tolerability in mice [9]	V [10]	IC50 (EBOV [11]) [µM]	other results
O=C(Nc1ncc([N+](=O)[O-])s1)c1ccccc1O [tizoxanide]	17.34 (±13.61)	3.02 (±7.43)																			
CC[C@H]1OC(=O)[C@H](C)[C@@H](O[C@H]2C[C@@](C)(OC)[C@@H](O)[C@H](C)O2)[C@H](C)[C@@H](O[C@@H]2O[C@H](C)C[C@H](N(C)C)[C@H]2O)[C@](C)(O)C[C@@H](C)CN(C)[C@H](C)[C@@H](O)[C@]1(C)O [Azithromycin]			10, 30, 60 ^2%	10.8																	
CN(C)CCOc1ccc(/C(=C(/CCCl)c2ccccc2)c2ccccc2)cc1 [Toremifene]	1.18 (±0.42) μM	0.29 µM	50% and 50 ^ %	3.64	no precipitates, not solid	Clear solution	Clear solution	Suspension	Clear solution	Insoluble	Clear solution	Suspension	Suspension	Non-	Suspension	~4400	3.057	well tolerated	354	0.03	approximated protection of infected mice (EBOV [5]): ~50%; reasoned survival (EBOV [5]): ~7%; estimated survival (EBOV [5]; po, 200 mg/kg): ~50%; stability of inhibitory activity of stock in V8 (VSV-EBOV-GPΔ-Luc): began to lose activity after about 1 week; IC50 (EBOV/Mak [6]; [12]): 1.83 µM; Cmax obtained relative to prediction, fold lower [8]: ~1.4 fold; IC50 (EBOV/Mak [3]; read-out: IC50): 3.64 µM; k12 ([10]; fitted PK model parameter): 4.28 per day; k21 ([10]; fitted PK model parameter): 0.992 per day; ka ([10]; fitted absorption rate): 16.6 per day; k [10]: 0.000198 per day
CCC(CC)COC(=O)[C@H](C)N[P@](=O)(OC[C@H]1O[C@@](C#N)(c2ccc3c(N)ncnn23)[C@H](O)[C@@H]1O)Oc1ccccc1 [remdesivir]	5.34 (±0.03) μM																				median t1/2 [1]: ≈ 1 hour; time of peak concentration [1]: 1.03 (±0.01) hour; baseline efficacy (SARS-CoV-2): 60%
CC(C)COCC(CN(Cc1ccccc1)c1ccccc1)N1CCCC1 (stereo not shown) [Bepridil]	3.63 (±1.48) μM	2.60 (±1.21) μM	100% and 100 ^3%	5.86	always solid (as if it had frozen) and contained precipitate	Clear solution	Clear solution	Clear solution	Slightly hazy	Clear solution	Clear solution	Suspension	Clear solution	Clear solution	Clear solution	~3000	4.859	well tolerated	25.2	3.21	single drug effect (Ebola virus): exceeds 80%; Survival (%) (MARV): 90 ^4%; stability of inhibitory activity of stock in V8 (VSV-EBOV-GPΔ-Luc): maintained inhibitory activity over 15 days; possible loss of potency on storage in V8 (EBOV/Mak [6]): < 2 fold; IC50 (EBOV/Mak [6]; Huh-7): 4.5 µM; IC50 (EBOV/Mak [6]; [12]): 4.53 µM; Cmax (in vivo): 3300 nM; Cmax obtained relative to prediction, fold higher [8]: ~1.8 fold; IC50 (EBOV/Mak [3]; read-out: IC50): 5.86 µM; Tk0 ([10]; fitted PK model parameter): 0.0873 days; k12 ([10]; fitted PK model parameter): 6.71 per day; k21 ([10]; fitted PK model parameter): 1.61 per day; k [10]: 0.348 per day
CCOC(=O)c1c(CSc2ccccc2)n(C)c2cc(Br)c(O)c(CN(C)C)c12 [arbidol]	0.77 (±0.23) μM	0.32 (±0.09) μM																			baseline efficacy (SARS-CoV-2): 36%
CN[C@H]1CC[C@@H](c2ccc(Cl)c(Cl)c2)c2ccccc21 [Sertraline]			70% and 70 ^ %		no precipitates, not solid	Clear solution	Clear solution	Clear solution	Clear solution	Clear solution	Clear solution	Suspension	Clear solution	Clear solution	Clear solution	~1200	1.628	well tolerated	909		Cmax obtained relative to prediction, fold higher [8]: ~1.2 fold; Tlag ([10]; fitted PK model parameter): 0.0976 days; efficacy in macaques (EBOV/Mak-005): not effective; also recorded: did not protect
Cc1cccc(/C=N/Nc2cc(N3CCOCC3)nc(OCCc3ccccn3)n2)c1 [Apilimod]				0.17																	Cmax ([1]; human, po): 260 nM
O=C1CCc2ccc(OCCCCN3CCN(c4cccc(Cl)c4Cl)CC3)cc2N1 [Aripiprazole]			10 ^1%																		adverse effect in treated infected mice (EBOV [2]): ^1 Mice became extremely somnolent, thwarting eating and drinking, which likely contributed to low survival.
CC(=O)c1ccc2c(c1)N(CCCN1CCC(CCO)CC1)c1ccccc1S2 [piperacetazine, Piperacetazine]				7.58																3.3	
